Some test systems named below: MOLT-4; HT-29; IGROV-1; HCT-15; RXF 393; HCC 2998; SK-OV-3; SNB-19; HOP-62; LOX IMVI; SF-295; SNB-75; K562; OVCAR-4; A498; ACHN; SN12C; NCI-H522; HL-60.
Holding throughout (test): NCI-60 cell line screen, 48 h

SMILES strings stand for the structures.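 Where inhibition never reached the appropriate level, the endpoint shown equals the highest concentration tested. Otherwise, values were interpolated linearly from a five-concentration, 48-hour dose response in 96-well plates. GI50: concentration for 50% inhibition of growth.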 Activity calls are given as the source filed them. Rule as the data show it: active = GI50 up to about 1.1 µM and inactive = higher.

In the case of `CC[P+](C)(C)c1ccccc1`, the GI50 was > 100 µM (inactive) in the assay with MOLT-4; > 100 µM (inactive) with HT-29; > 100 µM (inactive) with IGROV-1; over 100 µM in the assay on HCT-15; > 100 µM (inactive) in the assay with RXF 393; > 100 µM (inactive) with HCC 2998. For the same molecule, the GI50 in the assay with SK-OV-3, in the assay on SNB-19, in the assay on HOP-62, in the assay on LOX IMVI, with SF-295 and in the assay with SNB-75 was > 100 µM (inactive) throughout. For the same molecule, the GI50 in the assay with K562 was > 100 µM (inactive); in the assay on OVCAR-4 it was 99.3 µM (inactive); in the assay with A498, > 100 µM (inactive); in the assay with ACHN, > 100 µM (inactive); in the assay on SN12C, > 100 µM (inactive).

`CC(C)(Oc1ccc2c(=O)cc(-c3ccc(Cl)cc3)oc2c1)C(=O)Nc1c(Cl)cccc1Cl`: the GI50 with MOLT-4 was > 100 µM (inactive); with HT-29, > 100 µM (inactive); in the assay on IGROV-1, > 100 µM (inactive); with HCT-15, 24.2 µM; with SK-OV-3, > 100 µM (inactive); in the assay on SNB-19, > 100 µM (inactive). For the same molecule, the GI50 was > 100 µM (inactive) in the assay with NCI-H522; > 100 µM (inactive) with HOP-62; > 100 µM (inactive) with LOX IMVI; > 100 µM (inactive) with SF-295; 5.98 µM (inactive) in the assay on K562; > 100 µM (inactive) in the assay with HL-60. In addition, the GI50 with A498 is > 100 µM (inactive).

As for `CCC12CCCN(Cc3ccccc3)C1c1c(n(C)c3ccccc13)CC2` (centres undefined), the GI50 is 101 µM (inactive) in the assay on MOLT-4; 167 µM (inactive) in the assay on HT-29; 159 µM (inactive) with IGROV-1; 185 µM with HCT-15; 97.3 µM (inactive) in the assay on RXF 393; 151 µM (inactive) with HCC 2998. The GI50 with SK-OV-3 is > 253 µM (inactive); in the assay on SNB-19, > 253 µM (inactive); with NCI-H522, 61.1 µM (inactive); with HOP-62, > 253 µM (inactive); in the assay on LOX IMVI, 236 µM (inactive); with SF-295 it was 117 µM (inactive). Further, the GI50 in the assay on K562 is 163 µM (inactive); in the assay on HL-60, 106 µM (inactive); in the assay on ACHN, 246 µM (inactive); in the assay with SN12C, 149 µM (inactive).

In the case of `C/C(CC(=O)Nc1ccccc1[N+](=O)[O-])=N\NC(N)=O`, the GI50 in the assay with MOLT-4, in the assay on HT-29, in the assay on IGROV-1, in the assay with RXF 393, in the assay on HCC 2998 and in the assay with SK-OV-3 was > 100 µM (inactive) each time. Further, the GI50 in the assay on NCI-H522, in the assay on HOP-62, in the assay on LOX IMVI, in the assay with SF-295, with SNB-75 and with K562 was > 100 µM (inactive) throughout. The GI50 with HL-60 and with ACHN was > 100 µM (inactive) throughout.

In the case of `COc1ccc(C(=O)O)c(Cc2cccc3ccccc23)c1`, the GI50 with MOLT-4 was > 100 µM (inactive); in the assay on HT-29, > 100 µM (inactive); with IGROV-1 it was > 100 µM (inactive); in the assay with HCT-15 it was over 100 µM; in the assay on RXF 393, > 100 µM (inactive); in the assay with HCC 2998, > 100 µM (inactive). The GI50 in the assay on SK-OV-3, with SNB-19, with NCI-H522, in the assay with HOP-62, in the assay with LOX IMVI and with SF-295 was > 100 µM (inactive) throughout. The GI50 with SNB-75 is > 100 µM (inactive); in the assay with K562, 81.8 µM (inactive); in the assay on OVCAR-4, > 100 µM (inactive); in the assay on HL-60, > 100 µM (inactive); in the assay on ACHN, > 100 µM (inactive); in the assay on SN12C it was > 100 µM (inactive).

`C#CCN(Cc1ccc2nc(-c3ccccc3)c(Cl)nc2c1)c1ccc(Cl)c(Cl)c1`: the GI50 with MOLT-4 is > 100 µM (inactive); in the assay with HT-29, > 100 µM (inactive); with IGROV-1, > 100 µM (inactive); in the assay with HCT-15 it was over 100 µM; in the assay on HCC 2998 it was 33.5 µM (inactive); in the assay with SK-OV-3, > 100 µM (inactive). Also, the GI50 with SNB-19, in the assay with NCI-H522, in the assay on HOP-62, in the assay on LOX IMVI, with SF-295 and in the assay with SNB-75 was > 100 µM (inactive) each time. For the same molecule, the GI50 in the assay with K562, in the assay on OVCAR-4, in the assay on HL-60, in the assay with A498, with ACHN and with SN12C was > 100 µM (inactive) in each case.

For `COc1cc2cnc3c4cc(OCc5ccccc5)ccc4ccc3c2cc1OC`, the GI50 in the assay on MOLT-4 was 5.06 µM (inactive); in the assay with HT-29, 25.1 µM (inactive); with IGROV-1, 28.1 µM (inactive); with HCT-15 it was 70.1 µM; in the assay on RXF 393 it was 12 µM (inactive); with HCC 2998, 31.8 µM (inactive). For the same molecule, the GI50 is 12.7 µM (inactive) in the assay with SK-OV-3; 34.8 µM (inactive) in the assay on SNB-19; 17.3 µM (inactive) in the assay with NCI-H522; 18.9 µM (inactive) in the assay with HOP-62; 29.6 µM (inactive) in the assay on LOX IMVI; 15.6 µM (inactive) in the assay on SF-295. Besides, the GI50 is 3.94 µM (inactive) in the assay on SNB-75; 10.4 µM (inactive) in the assay with K562; 6.92 µM (inactive) with OVCAR-4; 1.66 µM (inactive) in the assay on HL-60; 46.7 µM (inactive) in the assay on ACHN; 73.3 µM (inactive) in the assay with SN12C.

With `O=C(NC1C(=O)NNC1c1cccc([N+](=O)[O-])c1)c1ccccc1` (centres undefined), the GI50 with MOLT-4, in the assay with HT-29, with IGROV-1, in the assay with RXF 393, with HCC 2998 and with SNB-19 was > 100 µM (inactive) throughout. The GI50 in the assay with HOP-62 is > 100 µM (inactive); with LOX IMVI it was > 100 µM (inactive); with SF-295, > 100 µM (inactive); with SNB-75, > 100 µM (inactive); with OVCAR-4, > 100 µM (inactive); in the assay on HL-60 it was 90.8 µM (inactive). Also, the GI50 with ACHN and in the assay on SN12C was > 100 µM (inactive) each time.

For the molecule `O=C(CC(=O)c1cccc2ccccc12)C(=O)Nc1ccc(Cl)cc1`, the GI50 with MOLT-4 is > 100 µM (inactive); with HT-29, > 100 µM (inactive); with IGROV-1, > 100 µM (inactive); in the assay on HCT-15 it was over 100 µM; with HCC 2998, > 100 µM (inactive); in the assay with SK-OV-3, > 100 µM (inactive). The GI50 with SNB-19, with NCI-H522, in the assay with HOP-62, in the assay on LOX IMVI, with SF-295 and in the assay with K562 was > 100 µM (inactive) each time. Further, the GI50 in the assay on OVCAR-4, in the assay on HL-60, in the assay on A498, in the assay with ACHN and in the assay on SN12C was > 100 µM (inactive) in each case.

`NC(=O)c1cn(C2OC(CO)C(O)C2O)c(=O)[nH]c1=O` (centres undefined): the GI50 is > 100 µM (inactive) in the assay on MOLT-4; > 100 µM (inactive) in the assay on HT-29; > 100 µM (inactive) in the assay with IGROV-1; over 100 µM in the assay on HCT-15; > 100 µM (inactive) in the assay on SK-OV-3; > 100 µM (inactive) in the assay on NCI-H522. Further, the GI50 with HOP-62, in the assay on LOX IMVI, in the assay with SF-295, in the assay on SNB-75, in the assay with K562 and with OVCAR-4 was > 100 µM (inactive) throughout. The GI50 in the assay on HL-60, in the assay on A498 and with ACHN was > 100 µM (inactive) throughout.

As for `COc1cc(C2c3cc4c(cc3C(NCC(O)CO)C3COC(=O)[C@H]23)OCO4)cc(OC)c1OC` (some centres undefined), the GI50 was 0.272 µM (active) with MOLT-4; 0.34 µM (active) in the assay on HT-29; > 100 µM (inactive) with IGROV-1; 2.45 µM in the assay with HCT-15; 0.428 µM (active) with HCC 2998; 0.422 µM (active) with SK-OV-3. Further, the GI50 is 0.356 µM (active) in the assay on SNB-19; 0.0405 µM (active) with NCI-H522; 0.221 µM (active) in the assay with HOP-62; 0.146 µM (active) in the assay with LOX IMVI; 0.213 µM (active) in the assay on SF-295; 0.318 µM (active) in the assay on SNB-75. Further, the GI50 in the assay on K562 was 0.361 µM (active); in the assay on HL-60, 0.0785 µM (active); with ACHN, 0.69 µM (active); with SN12C, 0.466 µM (active).

As for `CO[C@H](C(=O)O[C@H]1C(=O)N2CCC3CCC1C32C)c1ccccc1` (some centres undefined), the GI50 was > 100 µM (inactive) in the assay with MOLT-4; > 100 µM (inactive) in the assay with HT-29; > 100 µM (inactive) with IGROV-1; over 100 µM in the assay with HCT-15; > 100 µM (inactive) in the assay with RXF 393; > 100 µM (inactive) in the assay on HCC 2998. For the same molecule, the GI50 with SK-OV-3, in the assay on SNB-19, in the assay on NCI-H522, in the assay with HOP-62, in the assay with LOX IMVI and in the assay on SF-295 was > 100 µM (inactive) each time. The GI50 with SNB-75, in the assay on K562, with OVCAR-4, in the assay on HL-60, with ACHN and with SN12C was > 100 µM (inactive) each time.

These data come from ChEMBL document CHEMBL1201862, “PubChem BioAssay data set” (2004).
